Experimental data reported in ChEMBL document CHEMBL1141569, “Synthesis and antimicrobial activity of 3-arylamino-1-chloropropan-2-ols” (Bioorg Med Chem Lett, 2008).
In brackets after ≈: the same amount, converted by molar mass.

Key:
[1] = Toxicity in human erythrocytes assessed as hemolysis upto 250 ug/mL; assay type: cell-based; settings: erythrocyte
[2] = tested on: Salmonella typhi; assay: Antibacterial activity against Salmonella typhi by microbroth dilution assay; assay type: functional, Salmonella enterica subsp. enterica serovar Typhi; settings: Salmonella enterica
[3] = tested on: Aspergillus niger; assay: Antifungal activity against Aspergillus niger assessed as inhibition per disc by microbroth dilution assay; assay type: functional
[4] = tested on: Aspergillus fumigatus; assay: Antifungal activity against Aspergillus fumigatus at 5.85 ug/mL; assay type: functional
[5] = tested on: Aspergillus flavus; assay: Antifungal activity against Aspergillus flavus assessed as inhibition per disc by percent spore germination inhibition method; assay type: functional
[6] = tested on: Aspergillus flavus; assay: Antifungal activity against Aspergillus flavus assessed as inhibition per disc by microbroth dilution assay; assay type: functional
[7] = tested on: Pseudomonas aeruginosa; assay: Antibacterial activity against Pseudomonas aeruginosa by microbroth dilution assay; assay type: functional
[8] = tested on: Aspergillus flavus; assay: Antifungal activity against Aspergillus flavus assessed as inhibition per disc by disc diffusion method; assay type: functional
[9] = tested on: Candida albicans; assay: Antifungal activity against Candida albicans assessed as inhibition per disc by percent growth inhibition assay; assay type: functional
[10] = tested on: Streptococcus pneumoniae; assay: Antibacterial activity against Streptococcus pneumoniae by micro-broth dilution assay; assay type: functional
[11] = tested on: Aspergillus niger; assay: Antifungal activity against Aspergillus niger assessed as inhibition per disc by disc diffusion method; assay type: functional
[12] = tested on: Aspergillus fumigatus; assay: Antifungal activity against Aspergillus fumigatus assessed as inhibition per disc by microbroth dilution assay; assay type: functional
[13] = tested on: Staphylococcus aureus; assay: Antibacterial activity against Staphylococcus aureus by microbroth dilution assay; assay type: functional
[14] = tested on: Aspergillus fumigatus; assay: Antifungal activity against Aspergillus fumigatus assessed as inhibition per disc by disc diffusion method; assay type: functional
[15] = tested on: Aspergillus niger; assay: Antifungal activity against Aspergillus niger assessed as inhibition per disc by percent spore germination inhibition method; assay type: functional
[16] = tested on: Aspergillus fumigatus; assay: Antifungal activity against Aspergillus fumigatus assessed as inhibition per disc by percent spore germination inhibition method; assay type: functional
[17] = tested on: Salmonella typhi; assay: Antibacterial activity against Salmonella typhi at 31.25 ug/mL; assay type: functional, Salmonella enterica subsp. enterica serovar Typhi; settings: Salmonella enterica
[18] = tested on: Candida albicans; assay: Antifungal activity against Candida albicans at 31.25 ug/mL; assay type: functional
[19] = Toxicity in human erythrocytes assessed as hemolysis upto 4000 ug/mL; assay type: cell-based; settings: erythrocyte
[20] = tested on: Pseudomonas aeruginosa; assay: Antibacterial activity against Pseudomonas aeruginosa at 31.25 ug/mL; assay type: functional
[21] = Toxicity in human erythrocytes assessed as hemolysis upto 1.70 ug/mL; assay type: cell-based, Erythrocyte; settings: read-out: Activity
[22] = Toxicity in human erythrocytes assessed as hemolysis upto 62.5 ug/mL; assay type: cell-based, Erythrocyte; settings: read-out: Activity
[23] = Toxicity in human erythrocytes assessed as hemolysis upto 3.91 ug/mL; assay type: cell-based, Erythrocyte; settings: read-out: Activity

| Structure (SMILES) | Activity [1] | MIC [2] [µg/mL] | MIC [3] [µg/mL] | MIC [5] [µg/mL] | MIC [6] [µg/mL] | MIC [7] [µg/mL] | MIC [8] [µg] | MIC [9] [µg/mL] | MIC [10] [µg/mL] | MIC [11] [µg] | MIC [12] [µg/mL] | MIC [13] [µg/mL] | MIC [14] [µg] | MIC [15] [µg/mL] | MIC [16] [µg/mL] | other results |
| --- | --- | --- | --- | --- | --- | --- | --- | --- | --- | --- | --- | --- | --- | --- | --- | --- |
| OC(CCl)CNc1ccccc1Cl (stereo unspecified) | Non-toxic | 250 (≈ 1140 µM) | 62.5 | 31.2 (≈ 142 µM) | 63.5 | 62.5 (≈ 284 µM) | 23.43 | 250 (≈ 1140 µM) | 250 (≈ 1140 µM) | 23.43 | 31.2 | 500 (≈ 2270 µM) | 11.71 | 62.5 (≈ 284 µM) | 31.2 (≈ 142 µM) | inhibition at 5.85 µg/mL [4]: 90% |
| OC(CCl)CNc1ccc(Cl)cc1Cl (stereo unspecified) | Non-toxic | 31.3 (≈ 123 µM) | 125 | 62.5 (≈ 246 µM) | 125 | 62.5 (≈ 246 µM) | 46.87 | 62.5 (≈ 246 µM) | 125 (≈ 491 µM) | 93.75 | 62.5 | 500 (≈ 1960 µM) | 23.43 | 125 (≈ 491 µM) | 62.5 (≈ 246 µM) | inhibition at 31.25 µg/mL [17]: 90% |
| OC(CCl)CNc1cc(Cl)ccc1Cl (stereo unspecified) | Non-toxic | 250 (≈ 982 µM) | 125 | 62.5 (≈ 246 µM) | 125 | 62.5 (≈ 246 µM) | 93.75 | 62.5 (≈ 246 µM) | 500 (≈ 1960 µM) | 93.75 | 125 | 250 (≈ 982 µM) | 46.87 | 125 (≈ 491 µM) | 125 (≈ 491 µM) | – |
| OC(CCl)CNc1c(Cl)cccc1Cl (stereo unspecified) | Non-toxic | 500 (≈ 1960 µM) | 250 | 62.5 (≈ 246 µM) | 125 | 125 (≈ 491 µM) | 46.87 | 31.2 (≈ 123 µM) | 500 (≈ 1960 µM) | 93.75 | 125 | 500 (≈ 1960 µM) | 46.87 | 125 (≈ 491 µM) | 125 (≈ 491 µM) | inhibition at 31.25 µg/mL [18]: 90% |
| OC(CCl)CNc1cccc(Cl)c1 (stereo unspecified) | Non-toxic | 500 (≈ 2270 µM) | 62.5 | 62.5 (≈ 284 µM) | 62.5 | 250 (≈ 1140 µM) | 46.87 | 125 (≈ 568 µM) | 500 (≈ 2270 µM) | 46.87 | 62.5 | 1000 (≈ 4540 µM) | 23.43 | 62.5 (≈ 284 µM) | 62.5 (≈ 284 µM) | – |
| OC(CCl)CNc1ccc(Cl)cc1 (stereo unspecified) | Non-toxic | 62.5 (≈ 284 µM) | 31.2 | 15.6 (≈ 71 µM) | 31.2 | 125 (≈ 568 µM) | 11.71 | 62.5 (≈ 284 µM) | 500 (≈ 2270 µM) | 23.43 | 15.6 | 1000 (≈ 4540 µM) | 5.85 | 31.2 (≈ 142 µM) | 15.6 (≈ 71 µM) | inhibition at 5.85 µg/mL [4]: 90%; Activity [19]: Non-toxic |
| OC(CCl)CNc1cccc(Cl)c1Cl (stereo unspecified) | Non-toxic | 62.5 (≈ 246 µM) | 125 | 125 (≈ 491 µM) | 125 | 62.5 (≈ 246 µM) | 46.87 | 62.5 (≈ 246 µM) | 62.5 (≈ 246 µM) | 93.75 | 125 | 500 (≈ 1960 µM) | 46.87 | 125 (≈ 491 µM) | 62.5 (≈ 246 µM) | – |
| OC(CCl)CNc1ccc(Cl)c(Cl)c1 (stereo unspecified) | Non-toxic | 62.5 (≈ 246 µM) | 62.5 | 31.2 (≈ 123 µM) | 62.5 | 31.3 (≈ 123 µM) | 23.43 | 125 (≈ 491 µM) | 125 (≈ 491 µM) | 46.87 | 31.2 | 62.5 (≈ 246 µM) | 11.71 | 62.5 (≈ 246 µM) | 31.2 (≈ 123 µM) | inhibition at 31.25 µg/mL [20]: 90% |
| OC(CCl)CNc1cc(Cl)cc(Cl)c1 (stereo unspecified) | Non-toxic | 31.3 (≈ 123 µM) | 250 | 125 (≈ 491 µM) | 125 | 62.5 (≈ 246 µM) | 46.87 | 31.2 (≈ 123 µM) | 250 (≈ 982 µM) | 93.75 | 125 | 125 (≈ 491 µM) | 46.87 | 250 (≈ 982 µM) | 125 (≈ 491 µM) | inhibition at 31.25 µg/mL [17]: 90%; inhibition at 31.25 µg/mL [18]: 90% |
| C[C@@H]1[C@H](O)[C@@H](C)/C=C/C=C/C=C/C=C/C=C/C=C/C=C/[C@H](O[C@@H]2O[C@H](C)[C@@H](O)[C@H](N)[C@@H]2O)C[C@@H]2O[C@](O)(C[C@@H](O)C[C@@H](O)[C@H](O)CC[C@@H](O)C[C@@H](O)CC(=O)O[C@H]1C)C[C@H](O)[C@H]2C(=O)O (stereo in doubt) [AMPHOTERICIN B] | – | – | 1.95 | 1.95 (≈ 2.11 µM) | 1.95 | – | 0.73 | – | – | 0.73 | 1.95 | – | 0.73 | 1.95 (≈ 2.11 µM) | 1.95 (≈ 2.11 µM) | hemolysis at 1.7 ug/mL [21]: 50%; hemolysis at 62.5 ug/mL [22]: 100%; hemolysis at 3.91 ug/mL [23]: 5.52% |
| CN(C)[C@@H]1C(O)=C(C(N)=O)C(=O)[C@@]2(O)C(O)=C3C(=O)c4c(O)cccc4[C@@](C)(O)[C@H]3C[C@@H]12 [TETRACYCLINE] | – | 15.6 (≈ 35.1 µM) | – | – | – | 7.9 (≈ 17.8 µM) | – | – | 7.9 (≈ 17.8 µM) | – | – | 7.9 (≈ 17.8 µM) | – | – | – | hemolysis at 62.5 ug/mL [22]: 11.7%; hemolysis at 3.91 ug/mL [23]: 4.26% |
